Results taken from patent publication US8475850B2, “Methods and compositions for heavy metal detoxification” (priority 2007, dated 2013).
Like-named read-outs stand apart in the source and are kept apart here.

Tests used:
GST = GST activity assay in RL-34 cell lysate after treatment; type: cell-based, rat; settings: RL-34 cell line
NQO1 = test: NADPH quinone oxido reductase (NQO1) activity assay in RL-34 cell lysate after treatment; type: cell-based, rat; settings: RL-34 cell line
HMOX1 = settings: for HMOX1 gene expression increased over DMSO control: text summary of Table 7
GSTA1 and NQO1 = settings: for phase II gene expression increased over DMSO control: text summary of Table 7
[1] = tested on: metallothionein (hMT1&2 and hMT1&2alt); settings: for MT gene expression increased over DMSO control: text summary of Table 7
[2] = tested on: heme oxygenase (HO-1) promoter; test: heme oxygenase (HO-1) luciferase reporter in the HepG2 cell line; settings: thirty percent induction over DMSO control is considered as active
Nrf-2 = test: Western blot of Nrf-2 in the nuclear fraction of HepG2 cells; type: cell-based, human; settings: 4 hours, FIGS. 3 and 4
Description: The HepG2 cell line was cultured as above and test compounds were added for four hours, after which the cells were lysed and the nuclear fraction was isolated (Dignam, J. D., R. M. Lebovitz, and R. G. Roeder, Nucleic Acids Res, 11(5): 1475-89, 1983). Total protein concentration was determined using the Bicinchoninic Acid Kit (Sigma). […] (60 μg total protein) were electrophoresed and detection of Nrf-2 was performed using primary antibody incubation overnight at 4° C. (Santa Cruz Biotechnology, Inc, Santa Cruz, Calif.). Secondary antibody linked to horseradish peroxidase was incubated for one h (GE Healthcare, Piscataway, N.J.), after which proteins were visualized using the enhanced chemiluminescence (ECL) system. Densitometry was performed using Kodak Molecular Imaging Software v.4.0 (Eastman Kodak Company, Rochester, N.Y.) measuring the net intensity of the band.

## C=C1CC[C@@H]2[C@](C)(CO)[C@H](O)CC[C@@]2(C)[C@@H]1C/C=C1/C(=O)OC[C@H]1O [Andrographis, 3-(2-(Decahydro-6-hydroxy-5-(hydroxymethyl)-5,8a-dimethyl-2-methylenenaphthyl)ethylidene)dihydro-4-hydroxyfuran-2(3H)-one]
GST; 25 μg/ml
  GST activity induced over DMSO control: ≥ 20%
NQO1; 25 μg/ml
  NQO1 enzymatic activity induced over DMSO control: ≥ 20%
HMOX1; HepG2 cells
  HMOX1 gene expression increased over DMSO control: ≥ 20%
GSTA1 and NQO1; HepG2 cells
  phase II gene expression increased over DMSO control: ≥ 20%

## COc1ccc2cc3[n+](cc2c1OC)CCc1cc2c(cc1-3)OCO2 [Berberine]
NQO1; 20 μg/ml
  NQO1 enzymatic activity induced over DMSO control: ≥ 20%

## O=c1c(-c2ccc(O)cc2)coc2cc(O)cc(O)c12 [Bonistein]
NQO1; 20 μg/ml
  NQO1 enzymatic activity induced over DMSO control: ≥ 20%

## [Cl][Cd][Cl] [CdCl2]
[1]; HepG2 cells, controls
  MT gene induction (in words): induce
HMOX1; HepG2 cells, controls
  HMOX1 gene induction (in words): induce
GSTA1 and NQO1; HepG2 cells, 8 hours, 40 uM, average of GSTA1 and NQO1
  Phase II (ave) Ratio to DMSO: 0.94
GSTA1 and NQO1; HepG2 cells, controls
  phase II gene induction (in words): unable to increase

## COc1cc(C=CC(=O)CC(=O)C=Cc2ccc(O)c(OC)c2)ccc1O [Curcumin, 1,7-Bis(4-hydroxy-3-methoxyphenyl)hepta-1,6-diene-3,5-dione]
NQO1; 5 μg/ml
  NQO1 enzymatic activity induced over DMSO control: ≥ 20%
HMOX1; HepG2 cells
  HMOX1 gene expression increased over DMSO control: ≥ 20%
GSTA1 and NQO1; HepG2 cells
  phase II gene expression increased over DMSO control: ≥ 20%
[2]
  expression of heme oxygenase promoter activity (in words): induced

## c1ccc2c(Cc3c[nH]c4ccccc34)c[nH]c2c1 [DIM]
NQO1; 25 μg/ml
  NQO1 enzymatic activity induced over DMSO control: ≥ 20%

## OCc1c[nH]c2ccccc12 [I3C]
NQO1; 25 μg/ml
  NQO1 enzymatic activity induced over DMSO control: ≥ 20%

## CC1(C)CC[C@]2(C(=O)O)CC[C@]3(C)C(=CC[C@@H]4[C@@]5(C)CC[C@H](O)C(C)(C)[C@@H]5CC[C@]43C)[C@@H]2C1 [Oleanolic acid]
NQO1; 25 μg/ml
  NQO1 enzymatic activity induced over DMSO control: ≥ 20%
[1]; HepG2 cells
  MT gene expression increased over DMSO control: ≥ 20%
[2]
  expression of heme oxygenase promoter activity (in words): induced

## C=C1C(=O)O[C@H]2[C@H]1CC/C(C)=C/CC[C@@]1(C)O[C@@H]21 [Parthenolide]
NQO1; 20 μg/ml
  NQO1 enzymatic activity induced over DMSO control: ≥ 20%

## O=c1c(O)c(-c2ccc(O)c(O)c2)oc2cc(O)cc(O)c12 [Quercitin]
NQO1; 20 μg/ml
  NQO1 enzymatic activity induced over DMSO control: ≥ 20%

## Oc1ccc(C=Cc2cc(O)cc(O)c2)cc1 [Resveratrol]
NQO1; 20 μg/ml
  NQO1 enzymatic activity induced over DMSO control: ≥ 20%

## C[S+]([O-])CCCCN=C=S (stereo not shown) [Sulforaphane]
GST; 3 μg/ml
  GST activity induced over DMSO control: ≥ 20%
NQO1; 3 μg/ml
  NQO1 enzymatic activity induced over DMSO control: ≥ 20%
Nrf-2
  Nrf-2 nuclear translocation (in words): dramatic increase
[1]
  MT 1.2 (ave) Ratio to DMSO: 0.87
  MT gene induction (in words): but not MT
HMOX1
  HMOX1 gene induction (in words): increased
GSTA1 and NQO1
  Phase II (ave) Ratio to DMSO: 1.64
  phase II gene induction (in words): increased
[2]
  expression of heme oxygenase promoter activity (in words): induced

## O=c1oc2c(O)c3oc(=O)c4c5c(oc(=O)c6cc(O)c(O)c(O)c65)c(O)c5oc(=O)c(c2c2c(O)c(O)c(O)cc12)c3c54 [Terminalin]
[2]
  expression of heme oxygenase promoter activity (in words): induced

## COc1cc(O)c(CC=C(C)C)c(O)c1C(=O)/C=C/c1ccc(O)cc1 [Xanthohumol]
GST; 1 μg/ml
  GST activity induced over DMSO control: ≥ 20%
NQO1; 1 μg/ml
  NQO1 enzymatic activity induced over DMSO control: ≥ 20%
[1]; HepG2 cells
  MT gene expression increased over DMSO control: ≥ 20%
HMOX1; HepG2 cells
  HMOX1 gene expression increased over DMSO control: ≥ 20%
[2]
  expression of heme oxygenase promoter activity (in words): induced

## [Cl-].[Cl-].[Zn+2] [ZnCl2]
GSTA1 and NQO1; HepG2 cells, 8 hours, 10 μg/ml, average of GSTA1 and NQO1
  Phase II (ave) Ratio to DMSO: 0.94
[2]
  expression of heme oxygenase promoter activity (in words): induced

## O=C(/C=C/c1ccc(O)c(O)c1)O[C@@H]1C[C@](O)(C(=O)O)C[C@@H](O)[C@H]1O [chlorogenic acid]
NQO1; 25 μg/ml
  NQO1 enzymatic activity induced over DMSO control: ≥ 20%
